Values after ≈ are worked out from the molar mass of the structure shown. Numbered stars: 1 amine (or outer) side, 2 acyl side, 3 side chain; on linkers, the order of the positions; unused ones are H or OH. Square brackets hold non-standard residues; d marks the D form. Peptide text beside a SMILES is read from it. * marks the point of attachment. N(1S-cyclohexylethyl)Gly = C[C@H](NCC(=O)O)C1CCCCC1; N(3-imidazol-1-ylpropyl)Gly = O=C(O)CNCCCn1ccnc1; Gly(Nα-4-Cl-benzyl) = O=C(O)CNCc1ccc(Cl)cc1; N(4-Br-benzyl)Gly = O=C(O)CNCc1ccc(Br)cc1; N(2-thienylmethyl)Gly = O=C(O)CNCc1cccs1; N(tridecyl)Gly = CCCCCCCCCCCCCNCC(=O)O; N(4-F-Bzl)Gly = O=C(O)CNCc1ccc(F)cc1; X1 = CC(c1ccccc1)N(CC(=O)[*:2])[*:1]; Gly(N-2-aminoethyl) = NCCNCC(=O)O; Myristoyl = CCCCCCCCCCCCCC(=O)*; NFurfurylGly = O=C(O)CNCc1ccco1; Gly(N(CH2)3NH2) = NCCCNCC(=O)O; Gly(N-cHex) = O=C(O)CNC1CCCCC1; Nphe = O=C(O)CNCc1ccccc1; NPrGly = CCCNCC(=O)O; Nlys = NCCCCNCC(=O)O; Sar = CNCC(=O)O
Columns and labels:
C. albicans = assay type: cell-based, Candida albicans; details: 24 h
Text: (§1) This screening led to the discovery of RMG9-11 (FIG. 2C). The minimum inhibitory concentration (MIC) of resynthesized RMG9-11 was initially determined against C. albicans, C. neoformans, and the ESKAPE bacteria via CSLI guidelines (CLSI. Methods for Dilution Antimicrobial Susceptibility Tests for Bacteria That Grow Aerobically, 11th Edition. Clinical and Laboratory Standards Institute (2018); CLSI. Reference method for broth dilution antifungal susceptibility testing of yeasts; approved standard-third edition; CLSI document M27-A3. Clinical and Laboratory Standards Institute (2008)). […] C. albicans clinical isolates include a reference strain (M1), fluconazole susceptible strains (M4 and M6), and fluconazole resistant strains (M2, M3, M5, and M7). ATCC 64124 is multidrug resistant C. albicans strain that is resistant to amphotericin B, fluconazole, caspofungin, and flucytosine. All MICs were performed under CSLI guidelines in triplicate on at least three different days.
(§2) The minimum inhibitory concentration (MIC) of peptoids against fungal pathogens C. albicans and C. neoformans was determined following CLSI guidelines (Reference method for broth dilution antifungal susceptibility testing of yeasts; approved standard-third edition; CLSI document M27-A3.” CLSI. 2008.). Colonies were transferred from a streaked YPD plate to 0.85% saline to reach an OD530 between 0.18 and 0.25. This inoculant was diluted 1:100 into RPMI-MOPS and then further diluted 1:20 into RPMI-MOPS. 198 μL of inoculant was seeded into each well of a 96 well black-walled plate. 2-fold serial dilutions of 100× peptoid solutions were prepared in water and 2 μL of peptoid were added to each well in triplicate. […] MIC was defined as the lowest concentration of compound preventing fungal growth. This assay was repeated 3 times on separate days with each compound.

in vitro = assay type: cell-based; details: human, HepG2 hepatocellular carcinoma cells
Description: The mammalian cell lines that were tested (HepG2, 3T3, and HaCat) were incubated with RMG9-11 for 72 hours and cell viability was determined via mitochondrial activity using an MTT reduction assay where viable cells reduce MTT to formazan. Toxicity is reported as the concentration of the peptoid that results in a 50% reduction in viable cells, termed toxicity dose 50% or TD50. […] SR is defined as the TD50 divided by MIC and provides a measure of the therapeutic window for a compound. Typically for most lead compounds that would continue through development and optimization, a SR of 10 is preferred while an SR of 100 is more desirable for a compound moving into preclinical animal model evaluation.
Hepatocellular carcinoma (HepG2), mouse fibroblast (3T3), and human keratinocyte (HaCat) cells were cultured in Dulbeco modified eagle media (DMEM) containing 10% fetal bovine serum (FBS) and 1% penicillin, streptomycin, and glutamine (PSG) at 37° C. and 5% CO2. Cells were collected and adjusted to […] to 4×10^5 cells/mL in phenol-red free DMEM and plated (100 μL) 96 well plates. 2-fold serial dilutions of 10× peptoid (11.1 μL) were added to each well in triplicate. Water (vehicle) was used as a negative control. Plates were incubated at 37° C. in 5% CO2 for 72 hours. Thiazolyl blue tetrazolium bromide (MTT) was added to each well (5 mg/mL; 20 μL) and incubated for 3 hours. Media was removed, DMSO (100 μL) was added, and plates were incubated at 37° C. for 10 minutes. Plates were read on a SPECTRAMAX M5 plate reader (Abs. 570 nm). The concentration of compound resulting in a 50% reduction in growth compared to control (toxicity dose 50%; TD50) was determined using GRAFIT. This procedure was repeated three times on separate days.

C. neoformans = assay type: cell-based, Cryptococcus neoformans; details: 72 h
Text: as §1, §2

| SMILES | MIC C. albicans (C. albicans) [µg/mL] | MIC C. neoformans (C. neoformans) [µg/mL] | CC50 at 72 h (in vitro) [µg/mL] |
| --- | --- | --- | --- |
| CCCCCCCCCCCCCNCC(=O)N(CCC)CC(=O)N(CC(=O)N(CCCCN)CC(=O)N(CC(=O)N(CC(=O)N(CCCN)CC(N)=O)Cc1ccccc1)Cc1ccco1)Cc1ccc(F)cc1 [Compound 911-M4] (H-[N(tridecyl)Gly][NPrGly][N(4-F-Bzl)Gly][Nlys][NFurfurylGly][Nphe][Gly(N(CH2)3NH2)]-NH2) | 6.25 (≈ 5.97 µM) | 1.56 (≈ 1.49 µM) | 120 ± 36.9 (≈ 114 µM) |
| CCCCCCCCCCCCCNCC(=O)N(CCC)CC(=O)N(CC(=O)N(CCCCN)CC(=O)N(CC(=O)N(CC(=O)N(CCCN)CC(N)=O)Cc1ccccc1)Cc1ccco1)Cc1ccc(Cl)cc1 [Compound 911-M5] (H-[N(tridecyl)Gly][NPrGly][Gly(Nα-4-Cl-benzyl)][Nlys][NFurfurylGly][Nphe][Gly(N(CH2)3NH2)]-NH2) | 6.25 to 12.5 | 1.56 (≈ 1.47 µM) | 114 ± 32.5 (≈ 108 µM) |
| CCCCCCCCCCCCCNCC(=O)N(CCC)CC(=O)N(CC(=O)N(CCCCN)CC(=O)N(CC(=O)N(CC(=O)N(CCCN)CC(N)=O)Cc1ccccc1)Cc1ccco1)Cc1ccc(Br)cc1 [Compound 911-M6] (H-[N(tridecyl)Gly][NPrGly][N(4-Br-benzyl)Gly][Nlys][NFurfurylGly][Nphe][Gly(N(CH2)3NH2)]-NH2) | 6.25 (≈ 5.64 µM) | 1.56 to 3.13 | 108 ± 13.6 (≈ 97 µM) |
| CCCCCCCCCCCCCC(=O)NCC(=O)N(CCC)CC(=O)N(CC(=O)N(CCCCN)CC(=O)N(CC(=O)N(CCCn1ccnc1)CC(=O)N(CCCN)CC(N)=O)Cc1ccco1)C(C)c1ccccc1 (stereo not shown) [Compound 911-M14] (Myristoyl-G[NPrGly][X1][Nlys][NFurfurylGly][N(3-imidazol-1-ylpropyl)Gly][Gly(N(CH2)3NH2)]-NH2) | 25 (≈ 22.9 µM) | 6.25 to 12.5 | > 200 |
| CCCN(CC(=O)N(CC(=O)N(CCCCN)CC(=O)N(CC(=O)N(CC(=O)N(CCCN)CC(N)=O)Cc1ccccc1)Cc1ccco1)C(C)c1ccccc1)C(=O)CNC (stereo not shown) [SAR 1] (H-[Sar][NPrGly][X1][Nlys][NFurfurylGly][Nphe][Gly(N(CH2)3NH2)]-NH2) | >100 | – | > 200 |
| CCCCCCCCCCCCCNCC(=O)N(C)CC(=O)N(CC(=O)N(CCCCN)CC(=O)N(CC(=O)N(CC(=O)N(CCCN)CC(N)=O)Cc1ccccc1)Cc1ccco1)C(C)c1ccccc1 (stereo not shown) [SAR 2] (H-[N(tridecyl)Gly][Sar][X1][Nlys][NFurfurylGly][Nphe][Gly(N(CH2)3NH2)]-NH2) | 12.5 (≈ 12.3 µM) | – | 83.9 ± 5.7 (≈ 82.6 µM) |
| CCCCCCCCCCCCCNCC(=O)N(CCC)CC(=O)N(CC(=O)N(C)CC(=O)N(CC(=O)N(CC(=O)N(CCCN)CC(N)=O)Cc1ccccc1)Cc1ccco1)C(C)c1ccccc1 (stereo not shown) [SAR 4] (H-[N(tridecyl)Gly][NPrGly][X1][Sar][NFurfurylGly][Nphe][Gly(N(CH2)3NH2)]-NH2) | 6.25 (≈ 6.34 µM) | – | 61.8 ± 16.1 (≈ 62.7 µM) |
| CCCCCCCCCCCCCNCC(=O)N(CCC)CC(=O)N(CC(=O)N(CCCCN)CC(=O)N(C)CC(=O)N(CC(=O)N(CCCN)CC(N)=O)Cc1ccccc1)C(C)c1ccccc1 (stereo not shown) [SAR 5] (H-[N(tridecyl)Gly][NPrGly][X1][Nlys][Sar][Nphe][Gly(N(CH2)3NH2)]-NH2) | 12.5 to 25 | – | 157 ± 10.1 (≈ 160 µM) |
| CCCCCCCCCCCCCNCC(=O)N(CCC)CC(=O)N(CC(=O)N(CCCCN)CC(=O)N(CC(=O)N(CC(=O)N(C)CC(N)=O)Cc1ccccc1)Cc1ccco1)C(C)c1ccccc1 (stereo not shown) [SAR 7] (H-[N(tridecyl)Gly][NPrGly][X1][Nlys][NFurfurylGly][Nphe][Sar]-NH2) | 6.25 (≈ 6.25 µM) | – | 57.7 ± 11 (≈ 57.7 µM) |

The next lines start with results.

| MIC C. albicans (C. albicans) [µg/mL] | MIC C. neoformans (C. neoformans) [µg/mL] | SMILES | CC50 at 72 h (in vitro) [µg/mL] |
| --- | --- | --- | --- |
| 6.25 (≈ 6.07 µM) | 1.56 (≈ 1.52 µM) | CCCCCCCCCCCCCNCC(=O)N(CCC)CC(=O)N(CC(=O)N(CCCCN)CC(=O)N(CC(=O)N(CC(=O)N(CCCN)CC(N)=O)Cc1ccccc1)Cc1ccco1)Cc1ccccc1 [Compound 911-M3] (H-[N(tridecyl)Gly][NPrGly][Nphe][Nlys][NFurfurylGly][Nphe][Gly(N(CH2)3NH2)]-NH2) | 87.5 ± 10.8 (≈ 85 µM) |
| 12.5 (≈ 12.3 µM) | 3.13 (≈ 3.07 µM) | CCCCCCCCCCCCCNCC(=O)N(CCC)CC(=O)N(CC(=O)N(CCCCN)CC(=O)N(CC(=O)N(CC(=O)N(CCCN)CC(N)=O)Cc1ccccc1)Cc1ccco1)Cc1ccco1 [Compound 911-M7] (H-[N(tridecyl)Gly][NPrGly][NFurfurylGly][Nlys][NFurfurylGly][Nphe][Gly(N(CH2)3NH2)]-NH2) | 187 ± 21.5 (≈ 183 µM) |
| 6.25 (≈ 6.04 µM) | – | CCCCCCCCCCCCCNCC(=O)N(CCC)CC(=O)N(CC(=O)N(CCCCN)CC(=O)N(CC(=O)N(CC(=O)N(CCCN)CC(N)=O)Cc1ccccc1)Cc1ccco1)Cc1cccs1 [Compound 911-M8] (H-[N(tridecyl)Gly][NPrGly][N(2-thienylmethyl)Gly][Nlys][NFurfurylGly][Nphe][Gly(N(CH2)3NH2)]-NH2) | 108 ± 34.6 (≈ 104 µM) |
| 12.5 (≈ 12.2 µM) | 1.56 (≈ 1.53 µM) | CCCCCCCCCCCCCNCC(=O)N(CCC)CC(=O)N(CC(=O)N(CCCCN)CC(=O)N(CC(=O)N(CC(=O)N(CCCN)CC(N)=O)Cc1ccccc1)Cc1ccco1)C1CCCCC1 [Compound 911-M9] (H-[N(tridecyl)Gly][NPrGly][Gly(N-cHex)][Nlys][NFurfurylGly][Nphe][Gly(N(CH2)3NH2)]-NH2) | 99.5 ± 22 (≈ 97.4 µM) |
| 3.13 to 6.25 | 1.56 (≈ 1.49 µM) | CCCCCCCCCCCCCNCC(=O)N(CCC)CC(=O)N(CC(=O)N(CCCCN)CC(=O)N(CC(=O)N(CC(=O)N(CCCN)CC(N)=O)Cc1ccccc1)Cc1ccco1)[C@@H](C)C1CCCCC1 [Compound 911-M11] (H-[N(tridecyl)Gly][NPrGly][N(1S-cyclohexylethyl)Gly][Nlys][NFurfurylGly][Nphe][Gly(N(CH2)3NH2)]-NH2) | 82.5 ± 11.5 (≈ 78.6 µM) |
| 6.25 (≈ 5.8 µM) | 3.13 (≈ 2.9 µM) | CCCCCCCCCCCCCC(=O)NCC(=O)N(CCN)CC(=O)N(CC(=O)N(CCCCN)CC(=O)N(CC(=O)N(CC(=O)N(CCCN)CC(N)=O)Cc1ccccc1)Cc1ccco1)[C@@H](C)C1CCCCC1 [Compound 911-M12] (Myristoyl-G[Gly(N-2-aminoethyl)][N(1S-cyclohexylethyl)Gly][Nlys][NFurfurylGly][Nphe][Gly(N(CH2)3NH2)]-NH2) | 145 ± 35 (≈ 134 µM) |
| 6.25 (≈ 5.95 µM) | 3.13 (≈ 2.98 µM) | CCCCCCCCCCCCCNCC(=O)N(CCN)CC(=O)N(CC(=O)N(CCCCN)CC(=O)N(CC(=O)N(CC(=O)N(CCCN)CC(N)=O)Cc1ccccc1)Cc1ccco1)[C@@H](C)C1CCCCC1 [Compound 911-M13] (H-[N(tridecyl)Gly][Gly(N-2-aminoethyl)][N(1S-cyclohexylethyl)Gly][Nlys][NFurfurylGly][Nphe][Gly(N(CH2)3NH2)]-NH2) | 140 ± 33 (≈ 133 µM) |
| 50 (≈ 52.5 µM) | – | CCCCCCCCCCCCCNCC(=O)N(CCC)CC(=O)N(C)CC(=O)N(CCCCN)CC(=O)N(CC(=O)N(CC(=O)N(CCCN)CC(N)=O)Cc1ccccc1)Cc1ccco1 [SAR 3] (H-[N(tridecyl)Gly][NPrGly][Sar][Nlys][NFurfurylGly][Nphe][Gly(N(CH2)3NH2)]-NH2) | 194 ± 7.5 (≈ 204 µM) |
| 25 (≈ 25.8 µM) | – | CCCCCCCCCCCCCNCC(=O)N(CCC)CC(=O)N(CC(=O)N(CCCCN)CC(=O)N(CC(=O)N(C)CC(=O)N(CCCN)CC(N)=O)Cc1ccco1)C(C)c1ccccc1 (stereo not shown) [SAR 6] (H-[N(tridecyl)Gly][NPrGly][X1][Nlys][NFurfurylGly][Sar][Gly(N(CH2)3NH2)]-NH2) | 156 ± 4.7 (≈ 161 µM) |
